Experiments:
Format in all cases: in vivo
[1] = tested on: Echinochloa oryzacola Vasing.; test: Test Example 1: herbicidal activity, application before weed generation in submerged conditions; settings: Application herbicide amount 320 g/ha; Seventeenth Table
How it was run: (§1)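 Water-diluted emulsion formulation is applied onto flood water (4 cm deep) covering alluvial soil on the day weed seeds are sown, after transplanting 2.5 leaf stage rice. Rates are expressed per hectare. Injury or control is graded 0–5 three weeks later.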

Monochoria vaginalis = test: as above; settings: Application herbicide amount 320 g/ha; Seventeenth Table
How it was run: as §1

Scirpus juncoides = test: as above; settings: Application herbicide amount 320 g/ha; Seventeenth Table
How it was run: as §1

Cyperus difformis = test: Test Example 3: herbicidal effect by application to foliage (Wagner pot, water depth 0.1-0.5 cm); settings: Nineteenth Table; application herbicide amount 320 g/ha
How it was run: (§2)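 Post-emergence foliar application at a stated g/ha rate to plants grown 14 days from seed in alluvial soil, greenhouse 25–30 °C. Visual score after 3 weeks: 0 (≤5% effect) through 5 (≥90%).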

[2] = tested on: Echinochloa crus-galli var. crus-galli; test: as above; settings: Nineteenth Table; application herbicide amount 320 g/ha
How it was run: as §2

Leptochloa chinensis = test: as above; settings: Nineteenth Table; application herbicide amount 320 g/ha
How it was run: as §2

[3] = tested on: directly sowed Oryza sativa; test: Test Example 3: effect on crop by application to foliage (Wagner pot, water depth 0.1-0.5 cm); settings: Nineteenth Table; application herbicide amount 320 g/ha
How it was run: as §2

Digitaria ciliaris = test: Test Example 4: herbicidal effect by application to foliage (diluvial soil, plastic box); settings: application to foliage, application herbicide amount 320 g/ha
How it was run: (§3)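 Greenhouse plants (25° C. to 30° C., 14 d, diluvial soil) receive a foliar spray of water-diluted emulsifiable formulation at defined g/ha. Grading after 3 weeks uses a six-step herbicidal-ratio scale, with 4 covering 70% to <90% and 1 covering 5% to <20%.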

Galium spurium = test: as above; settings: application to foliage, application herbicide amount 320 g/ha
How it was run: as §3

## Cc1nnc(NC(=O)c2ccc(C(F)(F)F)n3c(SC(C)C)nnc23)o1 [1-033]
[1]
  A: Echinochloa oryzicola Vasing. (herbicidal effect grade): 5 (Herbicidal ratio of 90% or more (almost completely withered))
Monochoria vaginalis
  C: Monochoria vaginalis (herbicidal effect grade): 3 (Herbicidal ratio of 40% or more and less than 70%)
Scirpus juncoides
  B: Scirpus juncoides (herbicidal effect grade): 4 (Herbicidal ratio of 70% or more and less than 90%)
Cyperus difformis
  E (Cyperus difformis) herbicidal ratio grade: 5 (Herbicidal ratio of 90% or more (almost completely withered))
[2]
  H (Echinochloa crus-galli var. crus-galli) herbicidal ratio grade: 5 (Herbicidal ratio of 90% or more (almost completely withered))
Leptochloa chinensis
  D (Leptochloa chinensis) herbicidal ratio grade: 5 (Herbicidal ratio of 90% or more (almost completely withered))
[3]
  b (directly sowed Oryza sativa) effect on crop grade: 1 (Herbicidal ratio of 5% or more and less than 20%)
Digitaria ciliaris
  F (Digitaria ciliaris) herbicidal effect: 5 (Herbicidal ratio of 90% or more (almost completely withered))
Galium spurium
  Q (Galium spurium) herbicidal effect: 3 (Herbicidal ratio of 40% or more and less than 70%)

## CC[S+]([O-])c1nnc2c(C(=O)Nc3nnc(C)o3)ccc(C(F)(F)F)n12 (stereo not drawn) [1-034]
[1]
  A: Echinochloa oryzicola Vasing. (herbicidal effect grade): 4 (Herbicidal ratio of 70% or more and less than 90%)
Monochoria vaginalis
  C: Monochoria vaginalis (herbicidal effect grade): 4 (Herbicidal ratio of 70% or more and less than 90%)
Scirpus juncoides
  B: Scirpus juncoides (herbicidal effect grade): 4 (Herbicidal ratio of 70% or more and less than 90%)
Cyperus difformis
  E (Cyperus difformis) herbicidal ratio grade: 5 (Herbicidal ratio of 90% or more (almost completely withered))
[2]
  H (Echinochloa crus-galli var. crus-galli) herbicidal ratio grade: 5 (Herbicidal ratio of 90% or more (almost completely withered))
Leptochloa chinensis
  D (Leptochloa chinensis) herbicidal ratio grade: 5 (Herbicidal ratio of 90% or more (almost completely withered))
[3]
  b (directly sowed Oryza sativa) effect on crop grade: 5 (Herbicidal ratio of 90% or more (almost completely withered))
Digitaria ciliaris
  F (Digitaria ciliaris) herbicidal effect: 5 (Herbicidal ratio of 90% or more (almost completely withered))
Galium spurium
  Q (Galium spurium) herbicidal effect: 3 (Herbicidal ratio of 40% or more and less than 70%)

## Cc1nnc(NC(=O)c2ccc(C(F)(F)F)n3c([S+]([O-])C(C)C)nnc23)o1 (stereo not drawn) [1-035]
[1]
  A: Echinochloa oryzicola Vasing. (herbicidal effect grade): 5 (Herbicidal ratio of 90% or more (almost completely withered))
Monochoria vaginalis
  C: Monochoria vaginalis (herbicidal effect grade): 4 (Herbicidal ratio of 70% or more and less than 90%)
Scirpus juncoides
  B: Scirpus juncoides (herbicidal effect grade): 4 (Herbicidal ratio of 70% or more and less than 90%)
Cyperus difformis
  E (Cyperus difformis) herbicidal ratio grade: 5 (Herbicidal ratio of 90% or more (almost completely withered))
[2]
  H (Echinochloa crus-galli var. crus-galli) herbicidal ratio grade: 5 (Herbicidal ratio of 90% or more (almost completely withered))
Leptochloa chinensis
  D (Leptochloa chinensis) herbicidal ratio grade: 5 (Herbicidal ratio of 90% or more (almost completely withered))
[3]
  b (directly sowed Oryza sativa) effect on crop grade: 4 (Herbicidal ratio of 70% or more and less than 90%)
Digitaria ciliaris
  F (Digitaria ciliaris) herbicidal effect: 5 (Herbicidal ratio of 90% or more (almost completely withered))
Galium spurium
  Q (Galium spurium) herbicidal effect: 2 (Herbicidal ratio of 20% or more and less than 40%)

## Cc1nnc(NC(=O)c2ccc(C(F)(F)F)n3c(C[S+](C)[O-])nnc23)o1 (stereo not drawn) [1-036]
[1]
  A: Echinochloa oryzicola Vasing. (herbicidal effect grade): 4 (Herbicidal ratio of 70% or more and less than 90%)
Monochoria vaginalis
  C: Monochoria vaginalis (herbicidal effect grade): 3 (Herbicidal ratio of 40% or more and less than 70%)
Scirpus juncoides
  B: Scirpus juncoides (herbicidal effect grade): 3 (Herbicidal ratio of 40% or more and less than 70%)
Cyperus difformis
  E (Cyperus difformis) herbicidal ratio grade: 5 (Herbicidal ratio of 90% or more (almost completely withered))
[2]
  H (Echinochloa crus-galli var. crus-galli) herbicidal ratio grade: 5 (Herbicidal ratio of 90% or more (almost completely withered))
Leptochloa chinensis
  D (Leptochloa chinensis) herbicidal ratio grade: 5 (Herbicidal ratio of 90% or more (almost completely withered))
[3]
  b (directly sowed Oryza sativa) effect on crop grade: 4 (Herbicidal ratio of 70% or more and less than 90%)
Digitaria ciliaris
  F (Digitaria ciliaris) herbicidal effect: 5 (Herbicidal ratio of 90% or more (almost completely withered))
Galium spurium
  Q (Galium spurium) herbicidal effect: 4 (Herbicidal ratio of 70% or more and less than 90%)

## Cc1nnc(NC(=O)c2ccc(C(F)(F)F)n3c(CS(C)(=O)=O)nnc23)o1 [1-037]
[1]
  A: Echinochloa oryzicola Vasing. (herbicidal effect grade): 0 (Herbicidal ratio of 5% or less (almost no effect))
Monochoria vaginalis
  C: Monochoria vaginalis (herbicidal effect grade): 3 (Herbicidal ratio of 40% or more and less than 70%)
Scirpus juncoides
  B: Scirpus juncoides (herbicidal effect grade): 2 (Herbicidal ratio of 20% or more and less than 40%)
Cyperus difformis
  E (Cyperus difformis) herbicidal ratio grade: 5 (Herbicidal ratio of 90% or more (almost completely withered))
[2]
  H (Echinochloa crus-galli var. crus-galli) herbicidal ratio grade: 5 (Herbicidal ratio of 90% or more (almost completely withered))
Leptochloa chinensis
  D (Leptochloa chinensis) herbicidal ratio grade: 5 (Herbicidal ratio of 90% or more (almost completely withered))
[3]
  b (directly sowed Oryza sativa) effect on crop grade: 2 (Herbicidal ratio of 20% or more and less than 40%)
Digitaria ciliaris
  F (Digitaria ciliaris) herbicidal effect: 5 (Herbicidal ratio of 90% or more (almost completely withered))
Galium spurium
  Q (Galium spurium) herbicidal effect: 4 (Herbicidal ratio of 70% or more and less than 90%)

— patent US9708314B2, “Heterocyclic amide compound” (NISSAN CHEMICAL INDUSTRIES, LTD., priority 2013, dated 2017)
